Measurements published in US10434174B2, “Combination therapies using platinum agents and agents that target tumor-associated stroma or tumor cells” (BIOMED VALLEY DISCOVERIES, INC., priority 2014, dated 2019).
Square brackets hold non-standard residues; d marks the D form. Peptide text beside a SMILES is read from it. * marks the point of attachment. Dolaproine = CO[C@@H]([C@@H]1CCCN1)[C@@H](C)C(=O)O; Dil = CC[C@H](C)[C@H](NC)[C@@H](CC(=O)O)OC; X1 = C[C@@H](N*)[C@@H](O)c1ccccc1; NMeV = CN[C@H](C(=O)O)C(C)C

Tested on: OVCAR3 ovarian cancer model
Assay: M825 and M825-MMAE in OVCAR3 ovarian cancer model
Assay type: in vivo, mouse
Settings: 0.2 mg/kg, equivalent to maximum MMAE in the 10 mg/kg ADC group
Description: Treatment initiated when tumor volume reached approximately 120 mm^3. M825 was given i.v. at 10 mg/kg and M825-MMAE was given i.v. at 1, 3, or 10 mg/kg, 2 times per week for 3.5 weeks. […] The 10 mg/kg ADC group was redosed on Day 56, 2 times per week.

CC[C@H](C)[C@@H]([C@@H](CC(=O)N1CCC[C@H]1[C@H](OC)[C@@H](C)C(=O)N[C@H](C)[C@@H](O)c1ccccc1)OC)N(C)C(=O)[C@@H](NC(=O)[C@@H](NC)C(C)C)C(C)C [MMAE] (H-[NMeV]V[Dil][Dolaproine]-X1)
tumor growth: No effect
